Assay results from patent US12329802B2, “Focal treatment of prostate cancer” (Nymox Corporation, priority 2019, dated 2025).
Where no end group is shown, it is not given here.

Key:
[1] = system: prostate glandular epithelial cells; test: tissue culture genetic array, in vitro; type: cell-based
Text: Use of FT is a preferred embodiment. FT is a new molecular entity which in vitro stimulates caspase pathways (activation of caspases 7, 8, and 10, caspase recruitment domains 6, 11, and 14, and DIABLO), tumor necrosis factor pathways (activation of TNF1, TNFSF6, TNFSF8, TNFSF9, CD70 ligands, and TNFRSF19L, TNFRSF25, TRAF2, TRAF3, TRAF4, TRAF6 receptors), and BCL pathways (activation of BIK, HRK, BCL2L10 and BCL3) in prostate glandular epithelial cells, based on tissue culture genetic array data. […] The apoptotic process leads to typical ultrastructural progressive changes of membranous disruption and swelling, progressively deepening nuclear invaginations with eventual membranous bleb formations and cell death and fragmentation into apoptotic bodies. Histologically, typical apoptotic changes with positive immunohistochemical staining of markers for apoptosis are found throughout the injected areas for up to several weeks after treatment.

[2] = system: low grade prostate cancer (Gleason grade 6); test: clinical study: cancer treatment with new multifocal and an increase in Gleason grade primary pattern in the hemi-prostate (Example 4); type: in vivo, human; settings: for % Imp. (cancer treatment with new multifocal and an increase in Gleason grade primary pattern in the hemi-prostate): vs active surveillance control
Experimental: (§1) In a series of clinical studies a total of 146 men with low grade prostate cancer (Gleason grade 6) were treated in the following manner. Patients were randomized and treated with a transrectal intraprostatic single injection of a composition comprising 2.5 mg FT (n=49), or a composition comprising 15 mg FT (n=48), or were subject to control active surveillance (n=49). After the first follow-up biopsy at 45 days post-randomization, 18 patients in the control active surveillance group crossed over to a single administration of a composition comprising 2.5 mg FT. Patients were followed for 5 years including biopsies at baseline, 45 days, 18, 36, and 60 months, and urological evaluations with PSA every 6 months. Patients with Gleason grade increase or who elected surgical or radiotherapeutic intervention exited the study and were still included in the data analysis. Percentage of normal biopsies in the baseline focus quadrant and median tumor grade and volume were assessed; progression was measured by clinical and pathological outcomes including Gleason grade in the entire prostate sampled as well as for the treated prostate lobe. Interventions associated with Gleason grade increase as well as total incidence for any intervention was assessed.
This example evaluated the percentage of patients having conventional cancer treatment (surgery, radiotherapy, or chemotherapy), and having multifocal prostate cancer in the lobe (or hemi-prostate) in which the foci were initially treated with Gleason primary pattern (cancer treatment with new multifocal and an increase in Gleason grade primary pattern in the hemi-prostate).

[3] = system: low grade prostate cancer (Gleason grade 6); test: clinical study: hemi-prostate multifocal cancer with Gleason upgrade (Example 1); type: in vivo, human; settings: for % Imp. (hemi-prostate multifocal cancer with Gleason upgrade): vs active surveillance control
Experimental: as §1

[4] = system: low grade prostate cancer (Gleason grade 6); test: clinical study: hemi-prostate multifocal cancer with increase in Gleason primary pattern (Example 2); type: in vivo, human; settings: for % Imp. (hemi-prostate multifocal cancer with increase in Gleason primary pattern): vs active surveillance control
Experimental: as §1

[5] = system: low grade prostate cancer (Gleason grade 6); test: clinical study: cancer treatment with new multifocal with increased Gleason grade in the hemi-prostate (Example 3); type: in vivo, human; settings: for % Imp. (cancer treatment with new multifocal with increased Gleason grade in the hemi-prostate): vs active surveillance control
Experimental: as §1
This example evaluated the percentage of patients who had conventional cancer treatment (e.g., surgery, radiotherapy, and/or chemotherapy), and who and who had multifocal prostate cancer in the lobe (or hemi-prostate) in which the foci were initially treated with Gleason upgrade (cancer treatment with new multifocal with increased Gleason grade in the hemi-prostate).

[6] = FT 2.5 mg, single transrectal intraprostatic injection, <= 18 mos from treatment
[7] = FT 2.5 mg, single transrectal intraprostatic injection, <= 36 mos from treatment
[8] = FT 2.5 mg, single transrectal intraprostatic injection, <= 48 mos from treatment
[9] = FT 15 mg, single transrectal intraprostatic injection, <= 18 mos from treatment
[10] = FT 15 mg, single transrectal intraprostatic injection, <= 36 mos from treatment
[11] = FT 15 mg, single transrectal intraprostatic injection, <= 48 mos from treatment
[12] = Pooled FT (2.5 mg and 15 mg), <= 18 mos from treatment
[13] = Pooled FT (2.5 mg and 15 mg), <= 36 mos from treatment
[14] = Pooled FT (2.5 mg and 15 mg), <= 48 mos from treatment

Which results are given for “Ile-Asp-Gln-Gln-Val-Leu-Ser-Arg-Ile-Lys-Leu-Glu-Ile-Lys-Arg-Cys-Leu (IDQQVLSRIKLEIKRCL; also: trifluoroacetate salt) [FT]”?
effect on BCL pathways (activation of BIK, HRK, BCL2L10 and BCL3) [1]: stimulates; effect on caspase pathways (activation of caspases 7, 8, and 10, caspase recruitment domains 6, 11, and 14, and DIABLO) [1]: stimulates; effect on tumor necrosis factor pathways (activation of TNF1, TNFSF6, TNFSF8, TNFSF9, CD70 ligands, and TNFRSF19L, TNFRSF25, TRAF2, TRAF3, TRAF4, TRAF6 receptors) [1]: stimulates; percentage of patients with cancer treatment with new multifocal and an increase in Gleason grade primary pattern in the hemi-prostate [2, 6]: 0%; percentage of patients with cancer treatment with new multifocal and an increase in Gleason grade primary pattern in the hemi-prostate [2, 7]: 0%; percentage of patients with cancer treatment with new multifocal and an increase in Gleason grade primary pattern in the hemi-prostate [2, 8]: 0%; % Imp. (cancer treatment with new multifocal and an increase in Gleason grade primary pattern in the hemi-prostate) ([2]; FT 2.5 mg, <= 18 mos): 100%; % Imp. (cancer treatment with new multifocal and an increase in Gleason grade primary pattern in the hemi-prostate) ([2]; FT 2.5 mg, <= 36 mos): 100%; % Imp. (cancer treatment with new multifocal and an increase in Gleason grade primary pattern in the hemi-prostate) ([2]; FT 2.5 mg, <= 48 mos): 100%; percentage of patients with cancer treatment with new multifocal and an increase in Gleason grade primary pattern in the hemi-prostate [2, 9]: 2.6%; percentage of patients with cancer treatment with new multifocal and an increase in Gleason grade primary pattern in the hemi-prostate [2, 10]: 3.6%; percentage of patients with cancer treatment with new multifocal and an increase in Gleason grade primary pattern in the hemi-prostate [2, 11]: 4.2%; % Imp. (cancer treatment with new multifocal and an increase in Gleason grade primary pattern in the hemi-prostate) ([2]; FT 15 mg, <= 18 mos): 75.2%; % Imp. (cancer treatment with new multifocal and an increase in Gleason grade primary pattern in the hemi-prostate) ([2]; FT 15 mg, <= 36 mos): 79.5%; % Imp. (cancer treatment with new multifocal and an increase in Gleason grade primary pattern in the hemi-prostate) ([2]; FT 15 mg, <= 48 mos): 77.7%; percentage of patients with cancer treatment with new multifocal and an increase in Gleason grade primary pattern in the hemi-prostate [2, 12]: 1.3%; percentage of patients with cancer treatment with new multifocal and an increase in Gleason grade primary pattern in the hemi-prostate [2, 13]: 1.7%; percentage of patients with cancer treatment with new multifocal and an increase in Gleason grade primary pattern in the hemi-prostate [2, 14]: 2.1%; % Imp. (cancer treatment with new multifocal and an increase in Gleason grade primary pattern in the hemi-prostate) ([2]; Pooled FT, <= 18 mos): 87.6%; % Imp. (cancer treatment with new multifocal and an increase in Gleason grade primary pattern in the hemi-prostate) ([2]; Pooled FT, <= 36 mos): 90.3%; % Imp. (cancer treatment with new multifocal and an increase in Gleason grade primary pattern in the hemi-prostate) ([2]; Pooled FT, <= 48 mos): 88.8%; percentage of patients with hemi-prostate multifocal cancer with Gleason upgrade [3, 6]: 8.6%; percentage of patients with hemi-prostate multifocal cancer with Gleason upgrade [3, 7]: 16.7%; percentage of patients with hemi-prostate multifocal cancer with Gleason upgrade [3, 8]: 42.9%; % Imp. (hemi-prostate multifocal cancer with Gleason upgrade) ([3]; FT 2.5 mg, <= 18 mos): 54.26%; % Imp. (hemi-prostate multifocal cancer with Gleason upgrade) ([3]; FT 2.5 mg, <= 36 mos): 53.2%; % Imp. (hemi-prostate multifocal cancer with Gleason upgrade) ([3]; FT 2.5 mg, <= 48 mos): 5.7%; percentage of patients with hemi-prostate multifocal cancer with Gleason upgrade [3, 9]: 5.7%; percentage of patients with hemi-prostate multifocal cancer with Gleason upgrade [3, 10]: 9.1%; percentage of patients with hemi-prostate multifocal cancer with Gleason upgrade [3, 11]: 13.3%; % Imp. (hemi-prostate multifocal cancer with Gleason upgrade) ([3]; FT 15 mg, <= 18 mos): 69.7%; % Imp. (hemi-prostate multifocal cancer with Gleason upgrade) ([3]; FT 15 mg, <= 36 mos): 74.5%; % Imp. (hemi-prostate multifocal cancer with Gleason upgrade) ([3]; FT 15 mg, <= 48 mos): 70.8%; percentage of patients with hemi-prostate multifocal cancer with Gleason upgrade [3, 12]: 7.1%; percentage of patients with hemi-prostate multifocal cancer with Gleason upgrade [3, 13]: 13.0%; percentage of patients with hemi-prostate multifocal cancer with Gleason upgrade [3, 14]: 27.6%; % Imp. (hemi-prostate multifocal cancer with Gleason upgrade) ([3]; Pooled FT, <= 18 mos): 62.2%; % Imp. (hemi-prostate multifocal cancer with Gleason upgrade) ([3]; Pooled FT, <= 36 mos): 63.6%; % Imp. (hemi-prostate multifocal cancer with Gleason upgrade) ([3]; Pooled FT, <= 48 mos): 39.3%; percentage of patients with hemi-prostate multifocal cancer with increase in Gleason primary pattern [4, 6]: 0%; percentage of patients with hemi-prostate multifocal cancer with increase in Gleason primary pattern [4, 7]: 0%; percentage of patients with hemi-prostate multifocal cancer with increase in Gleason primary pattern [4, 8]: 0%; % Imp. (hemi-prostate multifocal cancer with increase in Gleason primary pattern) ([4]; FT 2.5 mg, <= 18 mos): 100%; % Imp. (hemi-prostate multifocal cancer with increase in Gleason primary pattern) ([4]; FT 2.5 mg, <= 36 mos): 100%; % Imp. (hemi-prostate multifocal cancer with increase in Gleason primary pattern) ([4]; FT 2.5 mg, <= 48 mos): 100%; percentage of patients with hemi-prostate multifocal cancer with increase in Gleason primary pattern [4, 9]: 2.9%; percentage of patients with hemi-prostate multifocal cancer with increase in Gleason primary pattern [4, 10]: 4.5%; percentage of patients with hemi-prostate multifocal cancer with increase in Gleason primary pattern [4, 11]: 6.7%; % Imp. (hemi-prostate multifocal cancer with increase in Gleason primary pattern) ([4]; FT 15 mg, <= 18 mos): 76.8%; % Imp. (hemi-prostate multifocal cancer with increase in Gleason primary pattern) ([4]; FT 15 mg, <= 36 mos): 79%; % Imp. (hemi-prostate multifocal cancer with increase in Gleason primary pattern) ([4]; FT 15 mg, <= 48 mos): 75.5%; percentage of patients with hemi-prostate multifocal cancer with increase in Gleason primary pattern [4, 12]: 1.4%; percentage of patients with hemi-prostate multifocal cancer with increase in Gleason primary pattern [4, 13]: 2.2%; percentage of patients with hemi-prostate multifocal cancer with increase in Gleason primary pattern [4, 14]: 3.4%; % Imp. (hemi-prostate multifocal cancer with increase in Gleason primary pattern) ([4]; Pooled FT, <= 18 mos): 88.8%; % Imp. (hemi-prostate multifocal cancer with increase in Gleason primary pattern) ([4]; Pooled FT, <= 36 mos): 89.7%; % Imp. (hemi-prostate multifocal cancer with increase in Gleason primary pattern) ([4]; Pooled FT, <= 48 mos): 87.5%; percentage of patients with cancer treatment with new multifocal with increased Gleason grade in the hemi-prostate [5, 6]: 4.9%; percentage of patients with cancer treatment with new multifocal with increased Gleason grade in the hemi-prostate [5, 7]: 10%; percentage of patients with cancer treatment with new multifocal with increased Gleason grade in the hemi-prostate [5, 8]: 17.4%; % Imp. (cancer treatment with new multifocal with increased Gleason grade in the hemi-prostate) ([5]; FT 2.5 mg, <= 18 mos): 69%; % Imp. (cancer treatment with new multifocal with increased Gleason grade in the hemi-prostate) ([5]; FT 2.5 mg, <= 36 mos): 57.4%; % Imp. (cancer treatment with new multifocal with increased Gleason grade in the hemi-prostate) ([5]; FT 2.5 mg, <= 48 mos): 44.4%; percentage of patients with cancer treatment with new multifocal with increased Gleason grade in the hemi-prostate [5, 9]: 5.1%; percentage of patients with cancer treatment with new multifocal with increased Gleason grade in the hemi-prostate [5, 10]: 7.1%; percentage of patients with cancer treatment with new multifocal with increased Gleason grade in the hemi-prostate [5, 11]: 8.3%; % Imp. (cancer treatment with new multifocal with increased Gleason grade in the hemi-prostate) ([5]; FT 15 mg, <= 18 mos): 67.7%; % Imp. (cancer treatment with new multifocal with increased Gleason grade in the hemi-prostate) ([5]; FT 15 mg, <= 36 mos): 69.8%; % Imp. (cancer treatment with new multifocal with increased Gleason grade in the hemi-prostate) ([5]; FT 15 mg, <= 48 mos): 73.5%; percentage of patients with cancer treatment with new multifocal with increased Gleason grade in the hemi-prostate [5, 12]: 5%; percentage of patients with cancer treatment with new multifocal with increased Gleason grade in the hemi-prostate [5, 13]: 8.6%; percentage of patients with cancer treatment with new multifocal with increased Gleason grade in the hemi-prostate [5, 14]: 12.8%; % Imp. (cancer treatment with new multifocal with increased Gleason grade in the hemi-prostate) ([5]; Pooled FT, <= 18 mos): 68.4%; % Imp. (cancer treatment with new multifocal with increased Gleason grade in the hemi-prostate) ([5]; Pooled FT, <= 36 mos): 63.4%; % Imp. (cancer treatment with new multifocal with increased Gleason grade in the hemi-prostate) ([5]; Pooled FT, <= 48 mos): 59.1%
